Data on five molecules can be found in patent US7700353B2, “Compositions and methods for inducing apoptosis in tumor cells” (E-P Therapeutics, Inc., priority 1998, dated 2010).

One test concerns 293GP and MCF-7 cells. In words: Effect of RNA/protein synthesis inhibitors on Ea-4 induced morphological change. It is filed as cell-based, human. As to conditions: 24 hours. The procedure:
To study the effects of α-aminitin and cycloheximide, known inhibitors of RNA and protein synthesis, respectively, on morphological changes induced by rtEa-4-peptide, about 1-2×10^5 of ZR-75-1 and 293GP cells, re-suspended in their respective basal medium without FBS, were plated in a 6-well culture chamber. Prior to plating the cells, an acid-washed coverslip was placed in each well of the culture chamber. Each culture was treated with recombinant trout Ea-4-peptide at 0.8 µM, and with either α-aminitin at 10 µg/mL (an RNA synthesis inhibitor) or with cycloheximide at 1.0 µg/mL (a protein synthesis inhibitor). The cell cultures were incubated at 37° C. under a humidified atmosphere of 5% CO2. Coverslips were removed from the culture chamber 24 hours after initiation of the treatment and observed under an Olympic inverted microscope equipped with differential interference phase contrast objective lenses (final magnification, 200×). The viability of the inhibitor-treated cells was further determined by a dye extrusion assay.
To determine whether the morphological changes induced by the Ea-4 peptides requires synthesis of new proteins or of RNA, 293GP and MCF-7 cells were cultured under the same conditions as described above. Ea-4 peptide-induced morphological changes in 293GP and MCF-7 cells were abolished by treatment with cycloheximide or α-aminitin (FIG. 4).

The test system of test [1] is SK-N-F1 neuroblastoma cells. Briefly: Neurite-like process outgrowth / morphological differentiation. The class given is cell-based, human. As to conditions: 5 nM. The procedure: Cells under various treatment conditions were maintained at 37° C. in a 5% CO2 incubator and observed from 30 minutes to 72 hours after incubation (synthetic human Ea- and Eb-peptide were chemically synthesized at the Biotechnology Center, University of Connecticut). For treatment with synthetic hEa, hEb peptide or hlGF-I, 1×10^5 cells were plated in each well of a 12-well culture plate in DMEM/F12 (1:1) supplemented with 0.4-3.2 µM of synthetic hEa-, hEb-peptide and/or 5-10 nM of hlGF-I.
Neuroblastoma SK-N-F1 cells (10^5) were seeded into 12-well culture plates in DMEM/F12 (1:1) supplemented with 0-3.2 µM of synthetic hEb-peptide, or buffer control, and incubated at 37° C. in a 5% CO2 humidified incubator.
Cell images were taken by random sampling at various time points using a MicroMAX CCD camera (Princeton Instruments, Bozeman, Mont.). Approximately 1000 cells were analyzed from each treatment, carried out in triplicate. Cells with neurites longer than one cell body diameter (>20 µm for SK-N-F1 cells) were scored as positive neurite-bearing (Fagerstrom, et al., Cell Growth Differ., 7: 775-85, 1996; Morrione, et al., Cancer Res. 60: 2263-72, 2000). The percentage of neurite-bearing cells and the respective length of neurites were measured with reference to a stage micrometer and analyzed using the public domain NIH Image program (developed at the U.S. National Institutes of Health and available on the Internet at http://rsb.info.nih.gov/nih-image).
To further characterize the dose-response relationship and time course of hEb peptide in inducing neurite-like process outgrowth, SK-N-F1 neuroblastoma cells were treated with various amounts (0 to 3.2 µM) of hEb peptide over a course of 72 hours. Images of cells were taken by random sampling after 1 h, 6 h, 24 h, 48 h and 72 h of incubation (see FIG. 11B). The average length of neurite-like process outgrowth was measured by random sampling of more than 1000 cells at various time points. The neurite-like processes started to be visible as early as 0.5-1 hour after the addition of hEb peptide. The effect of hEb peptide in inducing neurite-like outgrowth was dose-dependent, as evident from a comparison of cells treated with 0.4 µM hEb peptide with those treated with 0.8-3.2 µM hEb peptide over 24-72 hours. The maximum effect of hEb peptide was observed 48 hours after the addition of 3.2 µM hEb peptide, with an average neurite length of 50 to 60 µm (Table 1, below).

Test [2] relates to MCF-7, HT-29, HepG2, ZR-75-1, SK-N-F1, or HC cells. Briefly: Morphological change assay in tumor cell lines. It is filed as cell-based, human and fish. As to conditions: 2.5 nM, 24 hours, serum-free basal medium. The procedure: (§1) Approximately 1-2×10^5 of MCF-7, ZR-75-1, HT-29, HepG2, 293GP, HC or SK-N-F1 cells re-suspended in their respective basal medium without fetal bovine serum (FBS) were plated in a 6-well culture chamber. Prior to plating cells, an acid-washed coverslip was placed in each well of the culture chamber. Recombinant rainbow trout E-peptides (rtEa-2, rtEa-3 or rtEa-4 peptide at 0.8 µM), human IGF-I (hIGF-1, 2.5 nM) or the same amount of control protein was added to each well and the cell cultures were incubated at 37° C. under a humidified atmosphere of 5% CO2. The control protein was prepared from E. coli cells carrying the expression plasmid but without the E-peptide gene according to the purification method described by Tian et al. (1999). Coverslips were removed from the culture chamber 24 hours after initiation of the treatment and observed under an Olympic inverted microscope equipped with differential interference phase contrast objective lenses or phase contrast objective lens (final magnification, 200×). The morphological change assay was performed at least 10 times with different batches of Ea-4 peptide preparations.
Oncogenic transformed or established cancer cells derived from human and fish (MCF-7, HT-29, HepG2, ZR-75-1, SK-N-F1, or HC cells) were plated in their respective serum-free basal medium supplemented with 0.8 µM of the trout recombinant Ea-4-peptide, with the control protein, or with 2.5 nM of the recombinant hlGF-I and the cultures were examined 24 hours later under an inverted microscope equipped with differential interference phase contrast objectives. […] The rtEa-4 peptide treated cells developed several pseudopodia-like structures to establish contact with neighboring cells similar to that seen in untransformed or non-malignant cells.
Because each of these tumor cell lines obtained from ATCC contains a mixed population of tumorous and nontumorous cells, only between 25-40% of the cells from each cell line responded to induction by rtEa-4-peptide. […]

Test [3] relates to neuroblastoma SK-N-F1 cells. Briefly: Soft agar colony formation (hEb peptide). The class given is cell-based, human. As to conditions: 5 nM. The procedure:
The effect of hEb-peptide on in vitro colony formation was tested in the presence or absence of either the mature hlGF-I or fetal bovine serum (FIG. 12). Human neuroblastoma SK-N-F1 cells (10^4) were mixed with 0.4% soft agar supplemented with or without hEb peptide (3.2 µM), IGF-I (5 nM) and/or fetal bovine serum (2.5%), as indicated. The cell mixtures were seeded on top of a solidified basal medium DMEM/F12 (1:1) containing 0.5% agar. Medium supplemented with various peptides or serum were overlaid on top of the solidified cell layer followed by a two-week period incubation at 37° C. in a 5% CO2 humidified incubator. The percentage of cells formed into colonies with a diameter greater than 100 µm Macpherson, Tissue culture methods and applications, pp 276-80: N.Y. Academic Press, 1973) were scored in triplicate and subjected to Student t-test analysis. At least three independent assays under each treatment conditions were carried out.

The subject of the next test is 293GP or ZR-75-1 cells. In words: Morphological change by Ea-2, Ea-3, Ea-4 peptides. As to conditions: 0.8 μM, 24 hours. The class given is cell-based, human. The procedure: as §1
Cells were again cultured as described above. Twenty-four hours after treatment with 0.8 µM of E-peptides or the control protein, the cells were observed under an Olympic inverted microscope equipped with differential interference phase contrast objective lenses (200× magnification). […] To confirm this hypothesis, synthetic peptides specific to Ea-1-, Ea-2-, Ea-3- and Ea-4-peptide (Ea-1sp, Ea-2sp, Ea-3sp and Ea-4sp) specific sequence (see FIG. 1) were prepared and tested for their activities to induce morphological change in ZR-75-1 cells. For FIG. 6, cells were cultured in F12/DME medium without FBS as described above. Twenty-four hours after treatment with 0.8 µM of synthetic peptide containing Ea-1 sp, Ea-2sp, Ea-3sp or Ea-4sp specific sequence or the control protein, the cells were observed under an Olympic inverted microscope equipped with differential interference phase contrast objective lenses (200× magnification).

For test [4], the system named is cultured BALB/3T3 fibroblast. As to conditions: recombinant peptides; cited from earlier work.
Test [5] has as its system NIH 3T3 cells and caprine mammary epithelium cells (CMEC). As to conditions: recombinant peptides; cited from earlier work.

Consider `C[C@@H]1C[C@@H]([C@H](O)CC2CC(=O)NC(=O)C2)C(=O)[C@@H](C)C1` [cycloheximide], for which the “Ea-4 peptide-induced morphological changes” value in the test on 293GP and MCF-7 cells (cycloheximide 1.0 μg/mL with Ea-4 0.8 μM) was “abolished”.
As for .alpha.-aminitin, the “Ea-4 peptide-induced morphological changes” value in the test with 293GP and MCF-7 cells (α-aminitin 10 μg/mL with Ea-4 0.8 μM) is given as “abolished”.
Regarding “hlGF-I: recombinant mature human insulin-like growth factor I [reference compound]”, the morphological change result in test [1] is “remained rounded and formed aggregated clusters”; in test [2], “rounded morphology”. Also, in test [3], the colony formation entry was “strongly stimulated colony formation”.
On to “rtEa-2: recombinant Ea-2 peptide of rainbow trout pro-IGF-I, 47 amino acid residues (SEQ ID NO: 4) (RSVRAQRHTDMPRTPKKPLSGHSHPSCKEVHQKNSSRGNTGGRNYRM; Oncorhynchus mykiss)”, for which the “induction of morphological change” value with 293GP or ZR-75-1 cells is recorded as “able to induce morphological change”. Moreover, the mitogenic activity result in test [4] and in test [5] was “possess mitogenic activity” each time.

B1: rtEa-3: recombinant Ea-3 peptide of rainbow trout pro-IGF-I, 62 amino acid residues (SEQ ID NO: 3) (protein)
chain: RSVRAQRHTDMPRTPKVSTAVQSVDRGTERRTAQHPDKTKPKKEVHQKNSSRGNTGGRNYRM
modifications: Oncorhynchus mykiss
Turning to B1, the “induction of morphological change” value in the test with 293GP or ZR-75-1 cells is on record as “failed to induce any visible morphological change”. The mitogenic activity result in test [4] and in test [5] was “possess mitogenic activity” each time.
